In brackets after ≈: the same amount, converted by molar mass.
What was measured:
[1] = Solubility of the compound in minimal essential medium at 1 to 2 mg after 24 hrs in presence of 10% FCS by HPLC-UV based shake-flask method; format: physicochemical; settings: BLD = below limit of detection
[2] = Solubility of the compound in minimal essential medium at 1 to 2 mg after 24 hrs in absence of 10% FCS by HPLC-UV based shake-flask method; format: physicochemical; settings: BLD = below limit of detection
[3] = tested on: HeLa; assay: Cytotoxicity against human HeLa cells by MTT assay; format: functional, cell-based
[4] = Dissociation constant, pka of the compound by potentiometric titration method; format: physicochemical
[5] = Aqueous solubility of the compound in phosphate buffered saline at pH 7.4 after 24 hrs by HPLC-UV based shake-flask method; format: physicochemical
[6] = Intrinsic solubility of the compound at pH 2 by turbidimetric titration method; format: physicochemical; settings: buffer, read-out: Intrinsic_solubility
[7] = Aqueous solubility of the compound in phosphate buffered saline at pH 6.8 after 24 hrs by HPLC-UV based shake-flask method; format: physicochemical
[8] = Aqueous solubility of the compound in deionized water after 24 hrs by HPLC-UV based shake-flask method; format: physicochemical; settings: buffer
[9] = Solubility of the compound in water; format: physicochemical; settings: buffer
[10] = phosphate buffered saline, pH 7.4
[11] = phosphate buffered saline, pH 6.8

Structure (SMILES) | solubility [1] | solubility [2] | EC50 [3] [µM] | other results
Cl.O=c1c2cc(O)ccc2nc2n1CCc1c-2n(CCCN2CCCCC2)c2ccccc12 | – | – | 15.4 | pKa [4]: 8.8; solubility thermodynamic at 24 h [5, 10]: 441 µM; solubility [6]: 15.5 µM; solubility thermodynamic at 24 h [7, 11]: 1710 µM
CCN(CC)CCCn1c2c(c3ccccc31)CCn1c-2nc2ccc(O)cc2c1=O.Cl | – | – | 9.8 | pKa [4]: 8.94; solubility thermodynamic at 24 h [5, 10]: 1900 µM; solubility [6]: 53.2 µM; solubility thermodynamic at 24 h [7, 11]: 7400 µM
O=c1c2cc(O)ccc2nc2n1CCc1ccccc1-2 | – | – | 53.9 | –
O=c1c2cc(Cl)ccc2nc2n1CCc1ccccc1-2 | Bld | Bld | 20.6 | –
O=c1c2sc3ncccc3c2nc2n1CCc1c-2[nH]c2ccccc12 | – | – | 22.1 | –
CCN(CC)CCCOc1ccc2nc3n(c(=O)c2c1)CCc1c-3[nH]c2ccccc12.Cl | – | – | 17.1 | pKa [4]: 9.29; solubility thermodynamic at 24 h [5, 10]: 45.8 µM; solubility [6]: 0.7 µM; solubility thermodynamic at 24 h [7, 11]: 180 µM
O=c1c2ccccc2nc2n1CCc1ccccc1-2 | – | – | 64.2 | –
O=c1c2cc(O)ccc2nc2n1CCc1c-2[nH]c2ccccc12 | – | – | 11.3 | –
O=c1c2cc(Cl)ccc2nc2n1CCc1c-2[nH]c2ccccc12 | – | – | 7.2 | –
C=C1C(=O)O[C@@H]2C[C@@H](C)[C@@H]3C=CC(=O)[C@@]3(C)[C@@H](O)[C@H]12 [HELENALIN] | – | – | 0.7 | –

Further lines, with some results ahead:

solubility [1] | solubility [2] | Structure (SMILES) | EC50 [3] [µM] | other results
Bld | Bld | COc1cc2nc3n(c(=O)c2cc1OC)CCc1c-3[nH]c2ccccc12 | 60.8 | –
Bld | Bld | O=c1c2sc3ccccc3c2nc2n1CCc1c-2[nH]c2ccccc12 | 8.4 | –
Bld | Bld | Cl.O=c1c2cc(OCCCN3CCCCC3)ccc2nc2n1CCc1c-2[nH]c2ccccc12 | 16.3 | pKa [4]: 9.36; solubility thermodynamic at 24 h [5, 10]: 5.62 µM; solubility [6]: 0.21 µM; solubility thermodynamic at 24 h [7, 11]: 21.8 µM
Bld | Bld | O=c1c2ccccc2nc2n1CCc1c-2[nH]c2ccccc12 [RUTAECARPINE] | 26.1 | solubility thermodynamic at 24 h ([5]; buffer, pH 7.4, 24 h): 0.0271 µM (≈ 7.79 ng/mL); solubility thermodynamic at 24 h ([7]; buffer, pH 6.8, 24 h): 0.0257 µM (≈ 7.38 ng/mL); solubility [8]: 0.0328 µM (≈ 9.42 ng/mL); solubility [9]: 0.033 µM (≈ 9.48 ng/mL)
